In the NIST ThermoML archive (doi:10.1016/j.tca.2017.12.006):

Conditions: Liquid, Transpiration method

COC(=O)CCC(C)=O [methyl levulinate]
Conditions	vapor or sublimation pressure [kPa]
293.5 K	0.0302
298.5 K	0.0442
303.3 K	0.0638
308.5 K	0.0929
313.4 K	0.1359
318.3 K	0.1837
323.2 K	0.2626
328.2 K	0.3572
333.2 K	0.501
338.2 K	0.659
343.1 K	0.878
348.2 K	1.142
353.2 K	1.473

CCOC(=O)CCC(C)=O [ethyl levulinate]
Conditions	vapor or sublimation pressure [kPa]
293.5 K	0.0169
298.4 K	0.0253
303.3 K	0.0375
308.3 K	0.0542
313.3 K	0.0795
318.3 K	0.1129
323.3 K	0.1613
328.2 K	0.2312
333.1 K	0.3106
338.1 K	0.415
343.1 K	0.553
348.8 K	0.758

CCCCOC(=O)CCC(C)=O [butyl levulinate]
Conditions	vapor or sublimation pressure [kPa]
298.2 K	0.00393
303.2 K	0.00611
308.1 K	0.00895
313 K	0.01421
318 K	0.01999
323 K	0.03006
327.9 K	0.0443
332.8 K	0.0632
337.8 K	0.0939
342.8 K	0.1289
347.8 K	0.181
